In patent US20230273228A1, “Diagnostic Method and Compounds for the Treatment of Infections Caused by a Pathogen” (priority 2020, published 2023):

How the values were obtained:
Assay type in all cases: in vivo, Golden Syrian Hamster
[1] = test system: SARS-CoV-2; experiment: Body weight variation of hamsters infected with SARS-CoV-2
[2] = test system: TNF-α; experiment: Cytokine/chemokine profile by qRT-PCR in lung tissues and blood of SARS-CoV-2 infected hamsters
[3] = test system: SARS-CoV-2; experiment: Viral load determination by quantitative real-time RT-PCR in tissues of infected hamsters

CC/C=C\C/C=C\C[C@H](O)\C=C/C=C/C=C/[C@H](O)C/C=C\CCC(=O)OC [MaR1 ME, Methyl 7R,14S-dihydroxy-4Z,8E,10E,12Z,16Z,19Z-docosahexaenoate]
Improvement in weight loss, dependence on dose ([1]; MaR1 ME 0.05 and 0.5 mg/kg i.p. twice daily): dose dependent | Loss of body weight compared with infected untreated animals ([1]; SARS-CoV-2 infected hamsters, MaR1 ME 0.05 and 0.5 mg/kg i.p., Lipinova 1.20 mg/kg by gavage, twice daily): decreases significantly | Body weight loss ([1]; highest dose of MaR1 ME (0.5 mg/kg i.p. twice daily from day 2 post inoculation), SARS-CoV-2 infected hamsters): less than 5% | Impact on the chemokine and cytokine profile in infected animals [2]: significant impact | Levels of TNF-α in the lungs compared with untreated animals ([2]; lung tissue, 4, 7 and 14 dpi): significantly lower | Impact on viral load in tissues [3]: significant impact | Viral load in the lungs ([3]; after a few days of treatment): significantly reduced
